Test results from PubChem BioAssay AID330 (DTP/NCI, 2004).
“And” between values parts separate entries of the source, which are not always exact repeats. Equal values may be shown once. Toxic doses and inconclusive results are not listed. How the source made its calls: active means survival T/C of 150% or more; inactive means T/C below 125% in these data.

System: P388 leukemia ip, CD2F1 mice, survival T/C
Assay: NCI In Vivo Anticancer Drug Screen. Data for tumor model P388 Leukemia (intraperitoneal) in CD2F1 (CDF1) mice
Conditions: endpoint: median survival time, higher = longer survival
Procedure, shortened: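 Mice carrying the transplanted tumor received test compound or vehicle. Survival was recorded in each group, and the value is the treated-group measurement divided by that of the vehicle-treated control group.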

[1] = dose: 100.0 mg/kg/injection, schedule: Q01DX009 (ip), vehicle: saline with Tween-80
[2] = dose: 100.0 mg/kg/injection, schedule: Q04DX003 (ip), vehicle: saline with Tween-80
[3] = dose: 200.0 mg/kg/injection, schedule: Q01DX009 (ip), vehicle: saline with Tween-80
[4] = dose: 200.0 mg/kg/injection, schedule: Q04DX003 (ip), vehicle: saline with Tween-80
[5] = dose: 400.0 mg/kg/injection, schedule: Q04DX003 (ip), vehicle: saline with Tween-80
[6] = dose: 50.0 mg/kg/injection, schedule: Q01DX009 (ip), vehicle: saline with Tween-80
[7] = dose: 50.0 mg/kg/injection, schedule: Q01DX009 (ip), vehicle: Klucel (hydroxypropylcellulose) (HPC)
[8] = dose: 100.0 mg/kg/injection, schedule: Q01DX009 (ip), vehicle: Klucel (hydroxypropylcellulose) (HPC)
[9] = dose: 200.0 mg/kg/injection, schedule: Q01DX009 (ip), vehicle: Klucel (hydroxypropylcellulose) (HPC)
[10] = dose: 50.0 mg/kg/injection, schedule: Q01DX005 (ip), vehicle: saline
[11] = dose: 12.5 mg/kg/injection, schedule: Q01DX009 (ip), vehicle: saline with Tween-80
[12] = dose: 25.0 mg/kg/injection, schedule: Q01DX009 (ip), vehicle: saline with Tween-80

Measured: T/C

O=C(NCCCBr)Nc1cccc2c1CCCC2
inactive: [1] 100 % of control | [2] 100 % of control | [3] 100 % of control | [4] 108 % of control | dose: 400.0 mg/kg/injection, schedule: Q01DX009 (ip), vehicle: saline with Tween-80 100 % of control | [5] 100 % of control

O=C(Oc1ccc(OC(=O)c2ccc([N+](=O)[O-])cc2)cc1)c1ccccc1
inactive: dose: 50.0 mg/kg/injection, schedule: Q04DX003 (ip), vehicle: saline 101 % of control | dose: 100.0 mg/kg/injection, schedule: Q01DX001 (ip), vehicle: Klucel (hydroxypropylcellulose) (HPC) 95 % of control | dose: 100.0 mg/kg/injection, schedule: Q04DX003 (ip), vehicle: saline 95 % of control | dose: 200.0 mg/kg/injection, schedule: Q01DX001 (ip), vehicle: Klucel (hydroxypropylcellulose) (HPC) 95 % of control | dose: 200.0 mg/kg/injection, schedule: Q04DX003 (ip), vehicle: saline 102 % of control | dose: 400.0 mg/kg/injection, schedule: Q01DX001 (ip), vehicle: Klucel (hydroxypropylcellulose) (HPC) 101 % of control | dose: 400.0 mg/kg/injection, schedule: Q04DX003 (ip), vehicle: saline 96 % of control

Cc1ccc(NC(=O)Oc2ccc(Br)cc2Br)c([N+](=O)[O-])c1
inactive: [6] 115 % of control | dose: 50.0 mg/kg/injection, schedule: Q04DX003 (ip), vehicle: saline with Tween-80 115 % of control | [1] 115 % of control | [2] 96 % of control | [4] 99 % of control | [5] 115 % of control

CC(=O)Nc1nnc(SSc2nnc(NC(C)=O)s2)s1
inactive: [7] 90 % of control | [8] 102 % of control | [9] 94 % of control

CN(C)c1ccc(C(O)Cc2ccc3ccccc3n2)cc1 (stereo not drawn)
inactive: [7] 113 % of control | [8] 92 % of control | [9] 92 % of control

CC1=CO/C(=C\[Si](C)(C)C)OC1c1ccccc1 (stereo not drawn)
inactive: dose: 100.0 mg/kg/injection, schedule: Q01DX001 (ip), vehicle: saline with Tween-80 104 % of control | dose: 200.0 mg/kg/injection, schedule: Q01DX001 (ip), vehicle: saline with Tween-80 108 % of control | dose: 400.0 mg/kg/injection, schedule: Q01DX001 (ip), vehicle: saline with Tween-80 103 % of control

CSc1noc(N)n1
inactive: dose: 12.5 mg/kg/injection, schedule: Q01DX005 (ip), vehicle: saline 94 % of control | dose: 25.0 mg/kg/injection, schedule: Q01DX005 (ip), vehicle: saline 91 % of control | [10] 103 % of control and 94 % of control

Fc1ccc(N(c2nc(Cl)nc(Cl)n2)c2nc(Cl)nc(Cl)n2)cc1
inactive: [11] 113 % of control | [12] 100 % of control | [6] 113 % of control

CC1=Nc2ccc([N+](=O)[O-])cc2N=C(C)C1
inactive: [6] 101 % of control | [1] 98 % of control | dose: 100.0 mg/kg/injection, schedule: Q04DX002 (ip), vehicle: saline 101 % of control | [3] 90 % of control | dose: 200.0 mg/kg/injection, schedule: Q04DX002 (ip), vehicle: saline 101 % of control | dose: 400.0 mg/kg/injection, schedule: Q04DX002 (ip), vehicle: saline 105 % of control

C#CCC(C(C)=O)C(C)=O.[C-]#[O+].[C-]#[O+].[C-]#[O+].[C-]#[O+].[C-]#[O+].[C-]#[O+].[Co].[Co]
inactive: dose: 12.5 mg/kg/injection, schedule: Q01DX005 (ip), vehicle: Klucel (hydroxypropylcellulose) (HPC) 108 % of control | dose: 25.0 mg/kg/injection, schedule: Q01DX005 (ip), vehicle: Klucel (hydroxypropylcellulose) (HPC) 102 % of control | dose: 50.0 mg/kg/injection, schedule: Q01DX005 (ip), vehicle: Klucel (hydroxypropylcellulose) (HPC) 108 % of control and 95 % of control

CCCN(CCC)c1nsc(N)n1
inactive: dose: 7.5 mg/kg/injection, schedule: Q01DX009 (ip), vehicle: saline with Tween-80 113 % of control | dose: 15.0 mg/kg/injection, schedule: Q01DX009 (ip), vehicle: saline with Tween-80 113 % of control | dose: 30.0 mg/kg/injection, schedule: Q01DX009 (ip), vehicle: saline with Tween-80 118 % of control

Oc1ccccc1-c1nc(-c2ccccc2)c(-c2ccccc2)[nH]1
inactive: dose: 100.0 mg/kg/injection, schedule: Q04DX003 (ip), vehicle: Klucel (hydroxypropylcellulose) (HPC) 106 % of control | dose: 200.0 mg/kg/injection, schedule: Q04DX003 (ip), vehicle: Klucel (hydroxypropylcellulose) (HPC) 101 % of control | dose: 400.0 mg/kg/injection, schedule: Q04DX003 (ip), vehicle: Klucel (hydroxypropylcellulose) (HPC) 101 % of control

CC[N]1c2cc(C(C)(C)C)cc(C(C)(C)C)c2[O][Sb]1([c]1ccccc1)([c]1ccccc1)[c]1ccccc1
inactive: [6] 98 % of control | [1] 100 % of control | [3] 98 % of control

[N-]=[N+]=Nc1ccccc1C(=O)NCCCNC(=O)c1ccccc1N=[N+]=[N-]
inactive: dose: 12.5 mg/kg/injection, schedule: Q01DX005 (ip), vehicle: saline with Tween-80 91 % of control | dose: 25.0 mg/kg/injection, schedule: Q01DX005 (ip), vehicle: saline with Tween-80 87 % of control | dose: 50.0 mg/kg/injection, schedule: Q01DX005 (ip), vehicle: saline with Tween-80 86 % of control

NC(=O)c1n[nH][nH]c1=O
inactive: [10] 115 % of control | dose: 100.0 mg/kg/injection, schedule: Q01DX005 (ip), vehicle: saline 105 % of control | dose: 200.0 mg/kg/injection, schedule: Q01DX005 (ip), vehicle: saline 115 % of control

CNc1nc2c(s1)c1c(O)c3c(O)c(C)c4c(c32)C(=O)C(C)(O/C=C/C(OC)C(C)C(OC(C)=O)C(C)C(O)C(C)C(O)C(C)/C=C/C=C(/C)C(=O)N1)O4 (stereo not drawn)
inactive: dose: 25.0 mg/kg/injection, schedule: Q01DX009 (ip), vehicle: Klucel (hydroxypropylcellulose) (HPC) 98 % of control | [7] 100 % of control | [8] 106 % of control | [9] 100 % of control

Cc1c(C(=N)C(C#N)C#N)c(=N)oc2c1ccc1ccccc12
inactive: dose: 6.25 mg/kg/injection, schedule: Q01DX009 (ip), vehicle: saline with Tween-80 94 % of control and 97 % of control | [11] 86 % of control and 96 % of control | [12] 115 % of control and 87 % of control and 95 % of control | [6] 123 % of control and 94 % of control (2×) | [1] 100 % of control and 92 % of control | [3] 116 % of control
